Assay results published in US9168269B2, “Inhibitors of long and very long chain fatty acid metabolism as broad spectrum anti-virals” (THE TRUSTEES OF PRINCETON UNIVERSITY, priority 2010, dated 2015).
Read-outs that look alike come from different tables or passages of the source.

Key:
HCMV AD169 strain = assay: microbe, parasite or virus in culture; format: cell-based, human cytomegalovirus; settings: for reduction of HCMV viral yield: 96 h post infection; for effect on HCMV replication / yield, in words: concentrations as in the sentence or figure; for decrease in HCMV virus titer: 96 h after infection
late viral protein pUL99 = assay: HCMV late viral protein expression (pUL99-GFP); format: cell-based, human cytomegalovirus
ELOVL6 = settings: 'in vivo' as printed; cited from earlier work
MRCS human fibroblasts [1] = assay: host cell viability, morphology and toxicity in fibroblasts; settings: for toxicity on the cells: at the antiviral doses tested; for appearance of cells: 96 h
Experimental: (§1) Top panels: About 90% confluent MRCS human fibroblasts were treated with the indicated concentrations of triacsin C or the carrier in which the drug was dissolved (DMSO) in the presence of 10% fetal calf serum and photographed 96 h later. Bottom left panel: About 90% confluent MRCS fibroblasts were either mock infected or infected with the AD169 strain of HCMV at a multiplicity of (0.1 pfu/cell). The uninfected or infected cells received DMSO (solvent for the drug) or the drug for 96 h before cells were assayed for viability. Bottom right panel: About 90% confluent MRCS fibroblasts were infected with HCMV at a multiplicity of (0.1 pfu/cell) in the presence of DMSO (0 nM triacsin C) or triacsin C at the indicated concentrations. Infected fibroblasts were maintained in medium containing 10% fetal calf serum. Virus yield in the medium at 96 h after infection was determined by infecting fibrobalsts and assaying IE1 expression by immunofluorescence 24 h later. 96 h after infection, cells were harvested into culture medium and sonicated to release cell-associated virus. Virus yield in the medium was determined by infecting fibroblasts and assaying IE1 expression by immunofluorescence 24 h later.
(§2) The effect of triacsin C on the viability of MRCS human fibroblasts in culture medium containing 10% fetal calf serum was tested. At the time drug was added, cells were about 90% confluent.

ELOVL3 = settings: 'in vivo' as printed; cited from earlier work
hELOVL3 = hELOVL3 (Homo sapiens, UniProt Q9HB03); settings: in vitro; cited from earlier work
hELOVL3, sequence (Q9HB03 whole entry): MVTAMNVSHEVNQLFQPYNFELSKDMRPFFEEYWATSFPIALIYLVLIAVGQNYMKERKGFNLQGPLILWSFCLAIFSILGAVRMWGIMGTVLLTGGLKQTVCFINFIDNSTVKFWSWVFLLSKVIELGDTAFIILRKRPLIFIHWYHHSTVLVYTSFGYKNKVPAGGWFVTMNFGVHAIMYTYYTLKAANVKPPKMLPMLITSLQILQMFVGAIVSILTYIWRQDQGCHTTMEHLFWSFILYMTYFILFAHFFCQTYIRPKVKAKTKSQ

adenovirus type 5 = assay: adenovirus replication in fibroblasts; format: cell-based; settings: for decrease in adenovirus replication / titer: MOI 1, 72 h; for effect on adenovirus replication, in words: indicated amounts of drug
ACAT = settings: cited from earlier work
Liquid Droplet = settings: read-out: Liquid Droplet inhibition IC50; cited from earlier work
Liver ACAT = settings: cited from earlier work
[2] = mice, oral, 10 mg/kg, 2 hours after treatment; cited from earlier work
[3] = system: lipid droplets in HCMV infected cells; assay: lipid droplets by oil red O staining; format: cell-based, human
Excerpt: A pair of related enzymes that are both required for HCMV replication are ADP-ribosyltransferase 1 and 3 (ART1 and ART3). Inhibition of either of these enzymes led to a marked reduction in HCMV replication, ˜40-fold for ART1 and ˜10-fold for ART3. Without being bound by any particular mechanism, although ADP-ribosyltransfer is not per se a reaction of lipid metabolism, ADP ribosylation plays a key role in regulating lipid storage via targets including the protein CtBP1/BARS. Mono-ADP ribosylation of this protein results in loss of lipid droplets due to a dramatic efflux of fatty acids.
Thus host cell components involved in lipid droplet production and consumption provide antiviral targets. In addition to siRNA against the relevant cellular machinery, other means of inhibiting lipid droplet formation include the compounds spylidone, PF-1052 (a fungal natural product isolated from Phoma species), vermisporin, beauveriolides, phenochalasins, isobisvertinol, K97-0239, and rubimaillin.
Lipid droplet formation and depletion is associated with HCMV infection. At early phase of infection (2-12 hours after infection) lipid droplets are induced within the infected cells and thereafter, a complete loss of lipid droplets is observed (48-72 hours after infection).

HSV-1 = HSV-1 replication in fibroblasts; format: cell-based, herpes simplex virus type 1; settings: for effect on HSV-1 growth, in words: indicated amounts of drug
[4] = system: influenza A strain WSN/33; assay: influenza A replication in fibroblasts; format: cell-based; settings: for effect on influenza A growth, in words: indicated amounts of drug
[5] = system: HCV JFH1 strain derivative; assay: release of infectious HCV from Huh7.5 cells, TCID50 assay
Experimental: Huh7.5 cells were infected with a derivative of HCV JFH1 strain (MOI=0.1 TCID50/cell). Infected cells were maintained in medium containing 10% fetal calf serum plus DMSO (0 nM triacsin C) or triacsin C at the indicated concentrations. Media were harvested at 72 h and infectious virus was quantified by standard TCID50 assay on Huh7.5 cells.
Virus yield in the medium at 72 h after infection was determined.
Huh7.5 cells were infected a derivative of HCV JFH1 strain (MOI=0.1 TCID50/cell) Infected cells were maintained in medium containing 10% fetal calf serum plus DMSO (0 μg/ml TOFA) or TOFA at the indicated doses. Media were harvested at 72 h and infectious virus was quantified by standard TCID50 assay on Huh7.5 cells.
Huh7.5 cells which was infected with HCV and treated with indicated amounts of TOFA (FIG. 21).

MRCS human fibroblasts [6] = system: MRCS human fibroblasts
Experimental: as §1, §2

hELOVL6 = target: T1, hELOVL6 (Homo sapiens, UniProt Q9H5J4); settings: in vitro, cited from earlier work
T1 sequence (Q9H5J4 1-265): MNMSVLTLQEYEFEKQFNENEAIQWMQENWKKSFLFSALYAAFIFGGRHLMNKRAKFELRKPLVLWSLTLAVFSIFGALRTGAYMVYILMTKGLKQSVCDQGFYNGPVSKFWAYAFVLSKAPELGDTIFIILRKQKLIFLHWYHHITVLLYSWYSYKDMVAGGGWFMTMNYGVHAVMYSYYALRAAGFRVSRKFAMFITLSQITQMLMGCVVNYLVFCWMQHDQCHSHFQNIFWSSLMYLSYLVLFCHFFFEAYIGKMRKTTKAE

[7] = system: cholesterol ester (CE) synthesis; settings: cited from earlier work
ACSLs = settings: rat liver cell sonicates; cited from earlier work
[8] = system: triacylglycerol (TG) synthesis; settings: cited from earlier work
atherosclerosis = settings: oral, 10 mg/kg/day, two months, cited from earlier work
HCMV = assay: siRNA screen, infectious yield of HCMV; settings: enzyme knockdown by siRNA; fibroblasts, HCMV 0.1 pfu/cell, 96 h
Experimental: To identify host cell enzymes whose inhibition could decrease the production of virus progeny, an siRNA screen was performed to test for roles of specific enzymes involved directly or indirectly in lipid metabolism. The siRNA screen was designed to test for effects of inhibiting specific siRNA targets on the infectious yield of HCMV. The screen was performed in 96-well plates using a portion of an siRNA library purchased from Sigma. Each target was assayed with three different siRNAs.
Also at 96 h after infection, the medium was removed from each well and used to infect fibroblasts in a new 96-well plate, and infectivity was quantified by staining for immunofluorescence and counting IE1-positive cells 24 h later.

Experimental for MDCK cells: Bottom panel: Approximately 90% confluent MDCK cells were infected with WSN/33 at a multiplicity of (0.001 pfu/cell) in the presence of PBS (0 mM) or AOAA at the indicated concentrations. Virus yield in the medium at indicated times after infection was determined by standard plaque assay on MDCK cells.
Replication of influenza A (WSN/33 strain) was measured in MDCK cells at a multiplicity of infection of 0.001 particle forming unit per cell.

## O=C1Nc2ccc(-c3ccn[nH]3)cc2[C@](CNC(=O)c2ccc(F)cc2)(C(F)(F)F)O1 [(S)-1y]
HCMV AD169 strain; 25 μM
  inhibition of HCMV replication: ~40 fold
HCMV AD169 strain; 50 μM
  inhibition of HCMV replication: > 1000 fold
Late viral protein pUL99
  HCMV late pUL99 expression, in words: dramatically reduced
ELOVL6
  IC50: 169 nM
MRCS human fibroblasts [1]
  toxicity on the cells: Without inducing any toxicity
ELOVL3
  IC50: > 5000 nM
hELOVL3
  IC50: ~130 nM

## NOCC(=O)O [AOAA, aminooxyacetic acid]
HCMV AD169 strain; 0.5 mM
  decrease in HCMV replication: 100 fold
MDCK cells
  host cell toxicity by light microscopy: no evidence of host cell toxicity
Adenovirus type 5; 0.5 mM
  decrease in adenovirus replication / titer: 20 fold
Adenovirus type 5; 1 mM
  decrease in adenovirus replication / titer: 500 fold

## CC(C)c1cc(C(C)C)c(CC(=O)NS(=O)(=O)Oc2c(C(C)C)cccc2C(C)C)c(C(C)C)c1 [Avasimibe]
ACAT
  IC50: 479 nM

## CCCCCCCN(Cc1ccc(CCC(C)C)cc1)C(=O)Nc1c(F)cc(F)cc1F [CL-283,546]
Liquid Droplet
  IC50: 35 nM

## COc1cccc(C2(CNC(=O)Nc3c(C(C)C)cc(N)cc3C(C)C)CCN(c3ccccc3C)CC2)c1 [Compound 12g]
ACAT
  IC50: 68 nM

## Cc1cc(NC(=O)[C@@H]2Cc3ccc(N(C)C)cc3CN2C(=O)C(C)C)c(C)c(C)c1O [Compound 21]
Liver ACAT
  IC50: 113 nM

## Cc1[nH]n(-c2ccc(OC(F)(F)F)cc2)c(=O)c1C1(C(F)(F)F)C(=O)N(c2ccccc2)C2=C1C(=O)CC(C)(C)C2 (centres unmarked) [Compound 37]
HCMV AD169 strain; 35 μM
  inhibition of HCMV replication: > 10 fold
HCMV AD169 strain; 70 μM
  HCMV virus yield: undetectable levels
[2]
  liver level: 50 µM
  plasma level: 30 µM
Late viral protein pUL99
  HCMV late pUL99 expression, in words: substantially reduced
MRCS human fibroblasts [1]
  toxicity on the cells: Without inducing any toxicity
hELOVL3
  IC50: ~337 nM

## N=C(N)NCc1cccc([131I])c1 [MIBG, meta-iodo-benzylguanidine]
HCMV AD169 strain; 100 μM, fibroblasts
  inhibition of HCMV replication: 13 fold
[3]; 100 μM
  HCMV-induced accumulation and depletion of lipid droplets: blocked

## CCC(C)[C@@H]1C(=O)/C(=C(/O)[C@@H]2[C@@H]3[C@H](C)C[C@H](C)C[C@@H]3C=C[C@@H]2[C@]2(C)O[C@H]2C)C(=O)N1C (some centres unmarked) [PF-1052]
HCMV AD169 strain; 5 μM
  reduction of HCMV viral yield: > 50 fold
HCMV AD169 strain; 5 μM, medium replaced daily, 10 days after infection
  reduction of HCMV yield, prolonged treatment: > 5000 fold
HCMV AD169 strain; 10 μM
  reduction of HCMV viral yield: > 300 fold
HCMV AD169 strain
  effect on HCMV replication / yield, in words: profoundly inhibits
Late viral protein pUL99
  HCMV late pUL99 expression, in words: markedly reduced
Late viral protein pUL99; Human betaherpesvirus 5, 10 μM, read-out: inhibition of HCMV late protein synthesis
  inhibition at 10 µM: > 99%
MRCS human fibroblasts [1]; 5 and 10 μM
  host cell toxicity by light microscopy: no evidence of host cell toxicity
HSV-1
  effect on HSV-1 growth, in words: substantially inhibited
[4]
  effect on influenza A growth, in words: substantially inhibited
Adenovirus type 5
  effect on adenovirus replication, in words: not and not inhibited
[5]; 5 μM
  inhibition of release of infectious HCV particles: 10 fold
[5]; 10 μM
  inhibition of release of infectious HCV particles: > 100 fold

## CCCCCCCCN1CCc2c(C)c(CC(=O)O)c(C)c(NC(=O)C(C)(C)C)c21 [Pactimibe]
Liver ACAT
  IC50: 312 nM

## CCCCn1c(=O)c(NC(=O)Nc2c(C(C)C)cc(N)cc2C(C)C)c(-c2cccc(OCCCO)c2)c2cccnc21 [SMP-797]
ACAT
  IC50: 31 nM

## CC(C)=CCc1c([C@H](O)C2OC2(C)C)ccc2[nH]c3c(c12)C[C@@H]1CC[C@@]2(O)C(C)(C)C(=O)CC[C@]2(C)[C@@]31C (some centres unmarked) [Sespendole]
Liquid Droplet
  IC50: 4000 nM

## CCC(C)[C@@H]1C(=O)C2(C[C@@H]3[C@@H]4[C@H](C)C[C@H](C)C[C@@H]4C=C[C@@H]3[C@](C)(O)[C@H]2C)C(=O)N1C (some centres unmarked) [Spylidone]
Liquid Droplet
  IC50: 42000 nM

## CC(C)=C[C@H]1O[C@H]2[C@H]3O[C@@]34[C@H](CC[C@@]3(C)[C@@]4(O)CC[C@H]4Cc5c([nH]c6ccccc56)[C@@]43C)O[C@@H]2C(C)(C)O1 [Terpendole C]
Liquid Droplet
  IC50: 2500 nM

## CC(=O)Nc1nnc(S(N)(=O)=O)s1 [acetazolamide]
HCMV AD169 strain; Human betaherpesvirus 5, AD169, Fibroblast, read-out: inhibition of HCMV replication
  inhibition at 25 µM: ~80%

## O=C(Nc1ccc(C(F)(F)F)cc1)N1C2CCC1CC(S(=O)(=O)c1ccccc1)C2 (stereo not drawn) [endo-1k]
HCMV AD169 strain; 50 μM
  inhibition of HCMV replication: ~400 fold
Late viral protein pUL99
  HCMV late pUL99 expression, in words: dramatically reduced
MRCS human fibroblasts [6]
  toxicity on the cells: Without inducing any toxicity
hELOVL6; read-out: hELOVL6 IC50
  IC50: ~78 nM

## O=C(Nc1ccc(C(F)(F)F)cc1)N1C2CCC1CC(S(=O)(=O)c1ccccn1)C2 (stereo not drawn) [endo-1w]
hELOVL6; read-out: hELOVL6 IC50
  IC50: ~78 nM
hELOVL6; read-out: human ELOVL6 IC50
  IC50: ~6900 nM

## COC(=O)c1c2c(c3ccccc3c1O)OC(C)(C)C=C2 [rubimaillin]
HCMV AD169 strain; 5 μM
  decrease in HCMV virus titer: approximately 85%
HCMV AD169 strain; 10 μM
  reduction of HCMV replication: > 80%

## CCC(C)(C)C(=O)O[C@H]1C[C@@H](C)C=C2C=C[C@H](C)[C@H](CC[C@@H]3C[C@@H](O)CC(=O)O3)[C@H]21 [simvastatin]
HCMV AD169 strain; 5 μM
  decrease in HCMV virus titer: approximately 90%

## CCC/C=C/C/C=C/C=C/C=N/NN=O [triacsin C]
HCMV AD169 strain; 50 nM, presence of serum
  reduction of yield of infectious HCMV: > 8 fold
HCMV AD169 strain; 250 nM, added with virus, 96 h, 10% serum
  reduction of yield of infectious HCMV, factor: 85
HCMV AD169 strain
  effect on HCMV replication / yield, in words: substantially inhibited
HCMV AD169 strain; nanomolar concentrations
  inhibition of HCMV replication: > 10 fold
[7]
  IC50: 190 nM
MRCS human fibroblasts [1]; 50 nM, presence of serum
  viability of MRC-5 fibroblasts: without discrenably impacting
MRCS human fibroblasts [1]; 100 or 250 nM, 10% fetal calf serum
  appearance of cells: did not alter the appearance of cells
MRCS human fibroblasts [1]; absence of fetal calf serum, doses up to 10 μM
  cell viability: no discernable impact
MRCS human fibroblasts [1]; doses of ≦500 nM, 10% fetal calf serum
  cell viability: little effect
MRCS human fibroblasts [1]; ≦500 nM, 10% fetal calf serum
  appearance of cells: some cell rounding
ACSLs
  IC50: ~8700 nM
HSV-1
  effect on HSV-1 growth, in words: substantially inhibited
HSV-1; nanomolar concentrations
  inhibition of HSV-1 replication: > 10 fold
[4]
  effect on influenza A growth, in words: substantially inhibited
[4]; nanomolar concentrations
  inhibition of influenza A replication: > 10 fold
Adenovirus type 5
  effect on adenovirus replication, in words: not
[5]; indicated amounts of drug, 72 h
  release of infectious HCV particles, in words: significantly reduced
[8]
  IC50: 100 nM
[3]; 100 nM
  depletion of lipid droplets: > 90%
[3]; 250 nM
  lipid droplets by oil red O staining: no detectable lipid droplets
[3]; HFF cells
  lipid droplet formation induced by HCMV infection: reduced lipid droplet formation
atherosclerosis; LDLR-/- mice
  progression of atherosclerosis: significantly inhibited
atherosclerosis; mice
  toxicities: no significant toxicities noted

## CC(c1cc2ccccc2s1)N(O)C(N)=O (centres unmarked) [zileuton]
HCMV AD169 strain; 100 μM
  reduction of HCMV replication: ~90%

## STX6 (sense CAAGUUGUCAGGGACAUGATT; antisense UCAUGUCCCUGACAACUUGTT; chemistry not given here)
HCMV
  Fold reduction of HCMV replication: 1.92 fold

## STX8 (sense GACUACUUCUGGCAUCCUUTT; antisense AAGGAUGCCAGAAGUAGUCTT; chemistry not given here)
HCMV
  Fold reduction of HCMV replication: 1.96 fold
